The target of one test is T1, SCD5 (Homo sapiens, UniProt Q86SK9).
T1 construct: host or cells: S. cerevisiae ole1Δ strain (W303 pdr1Δ pdr3Δ background), plasmid pRS316 with TDH3 promoter and CYC1 terminator
T1 sequence (Q86SK9 1-330): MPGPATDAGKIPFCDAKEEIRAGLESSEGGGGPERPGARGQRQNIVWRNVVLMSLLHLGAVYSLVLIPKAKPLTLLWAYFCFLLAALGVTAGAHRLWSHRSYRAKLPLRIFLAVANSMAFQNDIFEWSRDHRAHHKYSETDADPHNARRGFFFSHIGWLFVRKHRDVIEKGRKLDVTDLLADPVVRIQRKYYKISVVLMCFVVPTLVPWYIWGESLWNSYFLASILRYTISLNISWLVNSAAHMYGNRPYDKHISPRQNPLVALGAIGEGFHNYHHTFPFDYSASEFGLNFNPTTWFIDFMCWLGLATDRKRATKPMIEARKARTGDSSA
In words: Growth inhibition of humanized yeast strain expressing SCD5 as sole desaturase. The format is cell-based. In short, it runs like this: (§1)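 Measured by optical density at 600 nm, growth of desaturase-dependent yeast (OLE1 deleted; human SCD1, human SCD5 or yeast Ole1 supplied from plasmid) was scored after 24 h (Ole1) or 40 h (SCD1, SCD5) at 30° C. in galactose media lacking uracil with DMSO-delivered compound.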

For another test, the target named is T2, SCD1 (Homo sapiens, UniProt O00767).
T2 construct: host or cells: S. cerevisiae ole1Δ strain (W303 pdr1Δ pdr3Δ background), plasmid pRS316 with TDH3 promoter and CYC1 terminator
T2 sequence (O00767 1-359): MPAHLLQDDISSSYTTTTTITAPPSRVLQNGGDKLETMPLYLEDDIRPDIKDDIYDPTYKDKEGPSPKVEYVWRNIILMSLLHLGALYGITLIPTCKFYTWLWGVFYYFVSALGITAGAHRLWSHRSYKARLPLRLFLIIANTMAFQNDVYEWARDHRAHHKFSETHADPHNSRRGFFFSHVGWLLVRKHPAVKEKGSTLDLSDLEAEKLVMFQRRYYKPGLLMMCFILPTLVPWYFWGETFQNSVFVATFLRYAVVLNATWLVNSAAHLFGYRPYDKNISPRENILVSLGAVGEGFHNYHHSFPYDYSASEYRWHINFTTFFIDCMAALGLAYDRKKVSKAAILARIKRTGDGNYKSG
In words: Growth inhibition of humanized yeast strain expressing SCD1 as sole desaturase. The format is cell-based. The method in brief: as §1

Where [1] appears, read: growth inhibition of humanized yeast strain expressing human SCD5.
Setting [2] is: growth inhibition of humanized yeast strain expressing human SCD1.
The mark [3] stands for this setting: humanized yeast strain expressing SCD5.
[4] abbreviates: humanized yeast strain expressing SCD1.

As a reminder, the IC50 is the midpoint of a concentration-inhibition curve. Turning to `COC(=O)N1CCC(c2noc(-c3ccc4cnn(C5COC5)c4c3)n2)CC1` [Compound 676], the results for the IC50 at SCD5 (setting [1]) and at SCD1 (setting [2]) were 0.013 µM and greater than 45 µM, respectively.
As for `CC(C)(C)OC(=O)N1CCC(c2nc(-c3ccc4cn[nH]c4c3)no2)CC1` [Compound 912], the IC50 at SCD5 (humanized yeast strain, 40 h) was 1.98 µM; on SCD1 (humanized yeast strain, 40 h) it was greater than 45 µM.
`O=C(N1CCN(c2nnc(-c3ccc4cnn(C5COC5)c4c3)o2)CC1)C12CC(C1)C2` [Compound 994]: the half-maximal inhibitory concentration (IC50) on SCD5 (humanized yeast strain, 40 h) was greater than 45 µM; on SCD1 (humanized yeast strain, 40 h), greater than 45 µM.
As to `CC(C)(C)OC(=O)N1C[C@@H]2[C@H](C1)[C@H]2C(=O)NCc1ccccc1` [Compound 771], the IC50 was greater than 45 µM against SCD5 (humanized yeast strain, 40 h) and greater than 45 µM at SCD1 (humanized yeast strain, 40 h).
`CC1(CC(=O)N2CCN(c3nnc(-c4ccc5cnn(C6COC6)c5c4)o3)CC2)CC1` [Compound 995]: the IC50 against SCD5 (humanized yeast strain, 40 h) was greater than 45 µM; against SCD1 (humanized yeast strain, 40 h) it was greater than 45 µM.
`COC(=O)N1CCCC(c2noc(-c3ccc4cnn(C5COC5)c4c3)n2)CC1` (stereo not drawn) [Compound 873]: the IC50 is 41.3 µM against SCD5 (humanized yeast strain, 40 h) and greater than 45 µM on SCD1 (humanized yeast strain, 40 h).
Regarding `O=C(c1ncccc1F)N1CCC(c2noc(-c3ccc4cnn(C5COC5)c4c3)n2)CC1` [Compound 881], the IC50 at SCD5 (humanized yeast strain, 40 h) was 0.01 µM; against SCD1 (humanized yeast strain, 40 h), greater than 45 µM.
On to `CC1(OC(=O)N2CCC(c3noc(-c4ccnc(N5CCC(F)(F)C5)c4)n3)CC2)CC1` [Compound 1171], for which the half-maximal inhibitory concentration (IC50) at SCD5 (humanized yeast strain, 40 h) worked out at 0.0311 µM; on SCD1 (humanized yeast strain, 40 h) it was 1.14 µM.
As for `CC(C)n1ncc2ccc(-c3noc(N4CCN(C(=O)c5ccccc5)CC4)n3)cc21` [Compound 362], on SCD5 (setting [3]), the 50% inhibitory concentration (IC50) is greater than 45 µM and the “SCD5 % Max Inhibition” value is 2.26%. Moreover, the “SCD1 % Max Inhibition” value on SCD1 (setting [4]) stood at 67.00%.
On to `CC(C)(C)OC(=O)N1CC2(C1)CN(c1noc(-c3ccc4cnn(C5COC5)c4c3)n1)C2` [Compound 1074], for which the IC50 at SCD5 (humanized yeast strain, 40 h) was 1.96 µM; against SCD1 (humanized yeast strain, 40 h), 5.43 µM.
Take `C=C(C)c1nccn2cc(-c3nc(C4CCN(C(=O)OC(C)(C)C)CC4)no3)cc12` [Compound 888]: the IC50 at SCD5 (humanized yeast strain, 40 h) is 0.01 µM; against SCD1 (humanized yeast strain, 40 h) it was greater than 45 µM.
In the case of `COC1CCC(S(=O)(=O)N2CCC(c3nc(-c4ccc5cnn(C(C)C)c5c4)no3)CC2)CC1` (stereo not drawn) [Compound 517], the IC50 on SCD5 (setting [3]) and at SCD1 (setting [4]) was greater than 45 µM each time.
With `CC(C)(C)OC(=O)N1CCC(c2nc(-c3ccc4cnn(C5CS(=O)(=O)C5)c4c3)no2)CC1` [Compound 690], the IC50 is 0.131 µM against SCD5 (setting [1]) and greater than 45 µM on SCD1 (setting [2]).
Consider `C=Cc1nn(C(C)C)c2cc(-c3noc(C4CCN(C(=O)OC(C)(C)C)CC4)n3)ccc12` [Compound 653], for which the IC50 at SCD5 (setting [1]) and against SCD1 (setting [2]) was greater than 45 µM each time.
Take `Cc1nnc(N2CCC(c3nc(-c4ccc5cnn(C(C)C)c5c4)no3)CC2)o1` [Compound 704]: the IC50 at SCD5 (setting [1]) is 1.68 µM; against SCD1 (setting [2]) it was greater than 45 µM.
Consider `Cc1nn(C)c2cc(-c3nc(C4CCN(C(=O)C(C)C)CC4)no3)ccc12` [Compound 938], for which the IC50 is greater than 45 µM against SCD5 (humanized yeast strain, 40 h) and greater than 45 µM against SCD1 (humanized yeast strain, 40 h).
For the molecule `CC(C)(C)OC(=O)N1CCC(c2nc(-c3ccc4cncn4c3)no2)CC1` [Compound 825], the IC50 is 9.49 µM at SCD5 (humanized yeast strain, 40 h) and greater than 45 µM at SCD1 (humanized yeast strain, 40 h).
As for `CC(C)(C)OC(=O)N1CCC(c2nc(-c3ccc4c(C#N)ncn4c3)no2)CC1` [Compound 899], the half-maximal inhibitory concentration (IC50) at SCD5 (humanized yeast strain, 40 h) was 26 µM; on SCD1 (humanized yeast strain, 40 h) it was greater than 45 µM.
For `CC1(OC(=O)N2CCC(c3nnc(-c4ccc5cnn(C6COC6)c5c4)o3)CC2)CC1` [Compound 980], the IC50 against SCD5 (humanized yeast strain, 40 h) is 0.877 µM; at SCD1 (humanized yeast strain, 40 h) it was greater than 45 µM.
The like results for `Cc1nn(C)c2cc(-c3nc(C4CCN(C(=O)C5CC5)CC4)no3)ccc12` [Compound 920] were, in that order, 0.1 µM and 11.7 µM.
For the molecule `Cc1nn(C)c2cc(-c3noc(C4CCN(C(=O)CCC(F)(F)F)CC4)n3)ccc12` [Compound 677], the IC50 on SCD5 (setting [1]) and against SCD1 (setting [2]) was greater than 45 µM each time.
In the case of `CC(C)n1ncc2ccc(-c3noc(C4(O)CCN(C(=O)OC(C)(C)C)CC4)n3)cc21` [Compound 832], the IC50 is 11.6 µM against SCD5 (humanized yeast strain, 40 h) and greater than 45 µM at SCD1 (humanized yeast strain, 40 h).

These data come from patent publication US11873298B2, “Compounds and uses thereof” (JANSSEN PHARMACEUTICA NV, priority 2017, dated 2024).
